Experimental data reported in patent US4206235A, “Novel 2,5-dihalophenyl-β-substituted sulfone fungicides” (priority 1976, dated 1980).
In brackets after ≈: the same amount, converted by molar mass. Several values for one entry are separate records, joined by “and”; a condition that tells them apart may be missing. Equal values may be shown once.

Tests used:
Paecilomyces varioti [1] = test: Halo test on plasticized PVC sheeting; format: cell-based; set-up: key to growth under the test sample (GUS): +: no reduction in growth; ±: slight reduction in growth; .-+.: moderate reduction in growth; -: complete reduction in growth
common moulds = test: Activity against common moulds on plasticized PVC sheets; format: cell-based
Aspergillus flavus = test: Halo test on plasticized PVC sheeting; format: cell-based; set-up: key to growth under the test sample (GUS): +: no reduction in growth; ±: slight reduction in growth; .-+.: moderate reduction in growth; -: complete reduction in growth
Alternaria tenuis = test: Halo test on plasticized PVC sheeting; format: cell-based; set-up: key to growth under the test sample (GUS): +: no reduction in growth; ±: slight reduction in growth; .-+.: moderate reduction in growth; -: complete reduction in growth; details: for Zone of growth inhibition (halo): brackets = growth partially suppressed
Aspergillus niger [2] = test: Halo test on plasticized PVC sheeting; format: cell-based; set-up: key to growth under the test sample (GUS): +: no reduction in growth; ±: slight reduction in growth; .-+.: moderate reduction in growth; -: complete reduction in growth
[3] = system: Cladosporium cladosporoides; test: Halo test on plasticized PVC sheeting; format: cell-based; set-up: key to growth under the test sample (GUS): +: no reduction in growth; ±: slight reduction in growth; .-+.: moderate reduction in growth; -: complete reduction in growth
Sclerotinia rolfsil = test: Fungitoxicity in culture media (agar), growth inhibition; format: cell-based; details: 50% inhibition of growth, read-out: ED50 (the source's name)
Description: (§1) Acetone solutions of the compound were mixed with an aliquot of distilled water and the fine suspension obtained was mixed with cooled but melted agar medium and poured into Petri dishes.
(§2) The tested fungi were grown on the solidified media. Growth of the fungus was measured and percent inhibition was calculated by comparing with the appropriate acetone-water controls. Media were usually Martin's or potato-dextrose agar media.
(§3) ED50 = effective dose, sufficient for the 50% inhibition of growth of the fungus, expressed in p.p.m.

Pythium aphanidermatum = test: as above; format: cell-based; details: 50% inhibition of growth, read-out: ED50 (the source's name)
Description: as §1, §2, §3

Rhizoctonia bataticola = test: as above; format: cell-based; details: Macrophomina phaseolina, 50% inhibition of growth, read-out: ED50 (the source's name)
Description: as §1, §2, §3

Rhizoctonia solani = test: as above; format: cell-based; details: 50% inhibition of growth, read-out: ED50 (the source's name)
Description: as §1, §2, §3

Rhizopus stolonifer = test: as above; format: cell-based; details: 50% inhibition of growth, read-out: ED50 (the source's name)
Description: as §1, §2, §3

[4] = system: Fusarium oxysporum sp. f.lycopersici; test: as above; format: cell-based; details: 50% inhibition of growth, read-out: ED50 (the source's name)
Description: as §1, §2, §3

[5] = system: mixed spore suspension of Aspergillus flavus, Aspergillus niger, Paecilomyces varioti, Penicillium funiculosum, Trichoderma viride, Alternaria tenuis …; test: Weight Loss Test of PVC sheeting; details: 14 days at 28° C.; for % weight loss: single strip
Aspergillus niger [6] = test: Agar incorporation test; format: cell-based; details: 120 h, 5 days at 28° C., A. niger
Description: (§4) Pure cultures of fungi Paecilomyces varioti, Cladosporium cladosporides, Penicillium funivulosum, and Aspergillus niger were exposed to a range of dilutions of the compound viz: 10,000, 3,000, 1,000, 600, 300, 100, 30, 10, 1 ppm incorporated into agar via […]. The fungal plates were incubated for 5 days at 28° C. The plates were then assessed for either the presence or absence of growth and the minimum inhibitory concentration (MIC) in ppm recorded.

[7] = system: Cladosporium cladosporides; test: Agar incorporation test; format: cell-based; details: 120 h, 5 days at 28° C.
Description: as §4

Paecilomyces varioti [8] = test: Agar incorporation test; format: cell-based; details: 120 h, 5 days at 28° C., P. varioti
Description: as §4

Penicillium funiculosum = test: Halo test on plasticized PVC sheeting; format: cell-based; set-up: key to growth under the test sample (GUS): +: no reduction in growth; ±: slight reduction in growth; .-+.: moderate reduction in growth; -: complete reduction in growth
Trichoderma viride = test: Halo test on plasticized PVC sheeting; format: cell-based; set-up: key to growth under the test sample (GUS): +: no reduction in growth; ±: slight reduction in growth; .-+.: moderate reduction in growth; -: complete reduction in growth
Penicillium funivulosum = test: Agar incorporation test; format: cell-based; details: 120 h, 5 days at 28° C., P. funiculosum
Description: The fungal plates were incubated for 5 days at 28° C. The plates were then assessed for either the presence or absence of growth and the minimum inhibitory concentration (MIC) in ppm recorded.

two-spotted mite = test: Activity against the two-spotted mite
[9] = 0.5% in PVC sheeting, brackets = growth partially suppressed

`COC(=O)C(Cl)CS(=O)(=O)c1cc(Cl)ccc1Cl` (stereo not drawn) [Example 3, 2,5-dichlorophenyl-β-carboxymethyl-β'-chloroethyl sulfone] was tested, and the “Zone of growth inhibition (halo)” value (Paecilomyces varioti [1]; 0.5% in PVC sheeting) was 5 millimetres, the “growth under the test sample (GUS)” value (Paecilomyces varioti [1]; 0.5% in PVC sheeting) was “-” and the “Zone of growth inhibition (halo)” value (Paecilomyces varioti [1]; 1% in PVC sheeting) was 10 millimetres. For the same compound, the “growth under the test sample (GUS)” value (Paecilomyces varioti [1]; 1% in PVC sheeting) was “-”, the “inhibition of the growth of common moulds on PVC sheets” value (common moulds; 0.5% by weight, PVC plasticized with 30% dialkyl sebacate) was “Complete inhibition” and the inhibition of fungi (common moulds; 0.5% in sheeting, halo test, seven fungi) was “all fungi were inhibited”. The “inhibition of fungal attack” value (common moulds; 0.5 and 1.0% in sheeting) was “virtual complete inhibition of fungal attack”, the “degree of inhibition against the seven fungi” value (common moulds; 1.0% in sheeting, halo test) was “good” and the “Zone of growth inhibition (halo)” value (Aspergillus flavus; 0.5% in PVC sheeting) was 1 millimetres. The “growth under the test sample (GUS)” value (Aspergillus flavus; 0.5% in PVC sheeting) was “.-+”, the “Zone of growth inhibition (halo)” value (Aspergillus flavus; 1% in PVC sheeting) was 1 millimetres and the “growth under the test sample (GUS)” value (Aspergillus flavus; 1% in PVC sheeting) was “.-+”. The “growth under the test sample (GUS)” value (Alternaria tenuis; 0.5% in PVC sheeting) was “-”, the “Zone of growth inhibition (halo)” value (Alternaria tenuis; 0.5% in PVC sheeting) was 5 millimetres and the “growth under the test sample (GUS)” value (Alternaria tenuis; 1% in PVC sheeting) was “-”. For the same compound, the “Zone of growth inhibition (halo)” value (Alternaria tenuis; 1% in PVC sheeting) was 10 millimetres, the “growth under the test sample (GUS)” value (Aspergillus niger [2]; 0.5% in PVC sheeting) was “-” and the “Zone of growth inhibition (halo)” value (Aspergillus niger [2]; [9]) was 2 millimetres. For the same compound, the “Zone of growth inhibition (halo)” value (Aspergillus niger [2]; 1% in PVC sheeting) was 6 millimetres, the “growth under the test sample (GUS)” value (Aspergillus niger [2]; 1% in PVC sheeting) was “-” and the “growth under the test sample (GUS)” value ([3]; 0.5% in PVC sheeting) was “-”. For the same compound, the “Zone of growth inhibition (halo)” value [3, 9] was 4 millimetres, the “Zone of growth inhibition (halo)” value ([3]; 1% in PVC sheeting) was 9 millimetres and the “growth under the test sample (GUS)” value ([3]; 1% in PVC sheeting) was “-”. The IC50 (Sclerotinia rolfsil) was 50 µg/mL (≈ 151 µM), the IC50 (Pythium aphanidermatum) was over 50 µg/mL and the IC50 (Rhizoctonia bataticola) was 50 µg/mL (≈ 151 µM). For the same compound, the IC50 (Rhizoctonia solani) was 20 µg/mL (≈ 60.3 µM), the IC50 (Rhizopus stolonifer) was over 50 µg/mL and the IC50 [4] was over 50 µg/mL. For the same compound, the “Mean % loss as plasticizer” value ([5]; 0.5%) was 1.8%, the “Mean % weight loss” value ([5]; 0.5%) was 0.6% and the “% weight loss” value ([5]; 0.5%) was 0.7% and 0.6% and 0.4% and 0.5%. For the same compound, the “Mean % loss as plasticizer” value ([5]; 1.0%) was 0.6%, the “Mean % weight loss” value ([5]; 1.0%) was 0.2% and the “% weight loss” value ([5]; 1.0%) was 0.4% and 0.1% and 0.01% and 0.2%. For the same compound, the MIC (Aspergillus niger [6]) was 100 µg/mL (≈ 302 µM), the MIC [7] was 100 µg/mL (≈ 302 µM) and the MIC (Paecilomyces varioti [8]) was 100 µg/mL (≈ 302 µM). The “growth under the test sample (GUS)” value (Penicillium funiculosum; 0.5% in PVC sheeting) was “-”, the “Zone of growth inhibition (halo)” value (Penicillium funiculosum; [9]) was 4 millimetres and the “Zone of growth inhibition (halo)” value (Penicillium funiculosum; 1% in PVC sheeting) was 8 millimetres. The “growth under the test sample (GUS)” value (Penicillium funiculosum; 1% in PVC sheeting) was “-”, the “Zone of growth inhibition (halo)” value (Trichoderma viride; 0.5% in PVC sheeting) was 2 millimetres and the “growth under the test sample (GUS)” value (Trichoderma viride; 0.5% in PVC sheeting) was “.-+”. For the same compound, the “Zone of growth inhibition (halo)” value (Trichoderma viride; 1% in PVC sheeting) was 5 millimetres, the “growth under the test sample (GUS)” value (Trichoderma viride; 1% in PVC sheeting) was “.-+” and the MIC (Penicillium funivulosum) was 30 µg/mL (≈ 90.5 µM).
`O=S(=O)(C=C(Cl)Cl)c1cc(Cl)ccc1Cl` [Example 4, 2,5-dichlorophenyl-β, β-dichlorovinyl sulfone] gave an IC50 (Sclerotinia rolfsil) of 10 µg/mL (≈ 32.7 µM), an IC50 (Pythium aphanidermatum) of 1 µg/mL (≈ 3.27 µM) and an IC50 (Rhizoctonia bataticola) of 5 µg/mL (≈ 16.3 µM). For the same compound, the IC50 (Rhizoctonia solani) was 5 µg/mL (≈ 16.3 µM), the IC50 [4] was 5 µg/mL (≈ 16.3 µM) and the “activity against the two-spotted mite” value (two-spotted mite) was “strong activity”.
